Assay [1] has as its system aurora-A. As to conditions: cited from earlier work.
The target in assay [2] is T1, Aurora-A (h) (Homo sapiens, UniProt O14965).
T1 construct: purchased Merck Millipore, Inc. (Abingdon, UK), Kinase Profiler service
T1 sequence (O14965 1-403): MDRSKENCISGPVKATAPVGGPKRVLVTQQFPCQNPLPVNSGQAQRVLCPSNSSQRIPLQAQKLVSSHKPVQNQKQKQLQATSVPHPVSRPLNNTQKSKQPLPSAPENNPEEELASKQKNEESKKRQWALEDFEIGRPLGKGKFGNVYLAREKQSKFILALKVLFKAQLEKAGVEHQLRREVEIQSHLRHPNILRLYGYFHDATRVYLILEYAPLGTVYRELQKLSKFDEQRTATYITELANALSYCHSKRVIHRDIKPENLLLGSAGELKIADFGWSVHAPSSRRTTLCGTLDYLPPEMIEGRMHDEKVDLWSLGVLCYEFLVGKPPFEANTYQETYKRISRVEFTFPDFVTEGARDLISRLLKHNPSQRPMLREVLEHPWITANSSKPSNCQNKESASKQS
The experiment in a line: Kinase Profiler in vitro assay (Merck Millipore), aurora-A. Type of assay: biochemical. The following applies: for inhibition at 100 µM: Aurora-A, at 100 μM concentration, with standard deviation; for IC50: at aurora A (h). On the procedure:
The fragments obtained from the above-mentioned docking study were purchased from commercial websites and evaluated using the Kinase Profiler in vitro assay technique developed by Merck Millipore, Inc., (Abingdon, UK). The aurora-A kinase was maintained with 8 mM […] at pH 7.0, 0.2 mM EDTA, 200 μM LRRASLG (Kemptide, American peptide Company, Sunnyvale, CA, USA), 10 mM MgAcetate, and [γ-33P-ATP]. The kinase reaction began with the addition of the MgATP mixture. The buffer-MgATP mixture was incubated for 40 min at room temperature. After incubation, the reaction was stopped through the addition of a 3% phosphoric acid solution. Then, a 10 μL reaction was spotted onto a P30 filtermat. The spotted P30 filtermat was washed three times for 5 min in 50 mM phosphoric acid and once in methanol prior to the drying and scintillation counting step.

Assay [3] addresses T2, Aurora-C (h) (Homo sapiens, UniProt Q9UQB9).
T2 construct: purchased Merck Millipore, Inc. (Abingdon, UK), Kinase Profiler service
T2 sequence (Q9UQB9 1-309): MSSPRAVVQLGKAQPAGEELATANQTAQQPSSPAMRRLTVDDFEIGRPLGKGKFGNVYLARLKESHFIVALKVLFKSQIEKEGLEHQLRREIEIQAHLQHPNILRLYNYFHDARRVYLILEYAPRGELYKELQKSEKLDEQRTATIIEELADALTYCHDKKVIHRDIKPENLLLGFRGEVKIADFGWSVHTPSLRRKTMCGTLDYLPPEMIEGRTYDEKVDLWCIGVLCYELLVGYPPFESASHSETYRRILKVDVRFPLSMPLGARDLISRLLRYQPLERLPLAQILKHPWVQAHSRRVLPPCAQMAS
The experiment in a line: Kinase Profiler in vitro assay, aurora-C. Type of assay: biochemical.

In assay [4] the target is T3, Aurora-B (h) (Homo sapiens, UniProt Q96GD4).
T3 construct: purchased Merck Millipore, Inc. (Abingdon, UK), Kinase Profiler service
T3 sequence (Q96GD4 whole entry): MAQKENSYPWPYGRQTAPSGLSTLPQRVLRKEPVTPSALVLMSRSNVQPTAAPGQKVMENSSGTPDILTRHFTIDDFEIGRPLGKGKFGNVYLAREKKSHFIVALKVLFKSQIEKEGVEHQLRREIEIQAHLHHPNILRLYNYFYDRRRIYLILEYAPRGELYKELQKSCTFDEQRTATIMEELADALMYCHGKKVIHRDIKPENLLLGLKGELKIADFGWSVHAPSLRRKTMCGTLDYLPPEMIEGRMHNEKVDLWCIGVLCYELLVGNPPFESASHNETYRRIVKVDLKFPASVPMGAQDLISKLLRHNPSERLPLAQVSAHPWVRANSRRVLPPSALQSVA
The experiment in a line: Kinase Profiler in vitro assay, aurora-B. Type of assay: biochemical.

Consider `O=C(O)c1ccc(Nc2ncc3c(n2)-c2ccc(Cl)cc2C(c2c(F)cccc2F)=NC3)cc1` [MLN8054], for which, in assay [1], the IC50 is […].

`O=C(Nc1onc2c1CCCC2)c1nc(-c2cnccn2)no1` [Fragment 14] had an inhibition at 100 µM in assay [2] of 39 ± 3%.

In the case of `O=c1cc(-c2ccccc2)[nH]c2nc(SCc3ccccc3)nn12` [Fragment 2], in assay [2], the inhibition at 100 µM was 13 ± 12%.

In turn, `COC(=O)c1nc2[nH]c(=O)cc(C)n2n1` [Fragment 8] displayed an inhibition at 100 µM in assay [2] of 24 ± 4%.

Molecule `COC(=O)/C=C1\S/C(=N\NC(=O)c2snnc2C)NC1=O` [Fragment 7] came in with an inhibition at 100 µM in assay [2] of 35 ± 3%. Same read-out and setting: in the case of `COC(=O)CSc1nnc(-c2n[nH]c3c2CCC3)n1N` [Fragment 4] it was 28 ± 1%.

In the case of `O=C1C(Nc2cccc(Cl)c2)=C(Cl)C(=O)c2[nH]c(C(F)(F)F)nc21` [Compound 17], the results for the inhibition at 10 µM in assay [3], in assay [4] and in assay [2] were 17 ± 4%, 76 ± 1% and 65%, respectively. Besides, the IC50 in assay [2] was determined as 7.47 µM.

In turn, `CN[C@@H]1C[C@H]2O[C@@](C)([C@@H]1OC)n1c3ccccc3c3c4c(c5c6ccccc6n2c5c31)C(=O)NC4` [Staurosporine, reference compound] showed an inhibition at 10 µM in assay [2] of 100%. In turn, `Cc1cc(C)cc(Nc2ncc3c(n2)C[C@@H](c2cccs2)CC3=O)c1` [Fragment 3] showed an inhibition at 100 µM in assay [2] of more than 50%. The same measure, in the same setting: in the case of `COc1cnc(NCc2ncn[nH]2)nc1-c1ccnn1C` [Fragment 11] it was 25 ± 2%; in that of `Cc1nn2c(nc3ccccc32)[nH]c1=O` [Fragment 5], 31 ± 6%.

Turning to `O=C1C(Nc2ccc(Cl)cc2)=C(Cl)C(=O)c2[nH]c(C(F)(F)F)nc21` [Compound 16], the inhibition at 10 µM in assay [3] is 8 ± 8%; in assay [4], 84 ± 1%; in assay [2] it was 52%. In addition, in assay [2], the IC50 turned out to be 9.17 µM. Regarding `O=C1C=CC(=O)c2[nH]c(C(F)(F)F)nc21` [Fragment 12], in assay [2], testing at 100 µM gave an inhibition of 93 ± 2%. The molecule `C/C=C/C(=O)Nn1cnc2c(cnn2-c2ccccc2)c1=O` [Fragment 15] displayed an inhibition at 100 µM in assay [2] of 2 ± 15%. On the same count and under the same terms, then `Cc1nnsc1C(=O)Nc1onc2c1CSC2` [Fragment 13], with more than 50%. On the same count and under the same terms, in the case of `Cc1nonc1-c1ccnc2nnc(N)n12` [Fragment 9] it was 8 ± 10%.
